Data taken from patent US9458187B2, “Methods for treatment of inflammatory conditions using S-[4-(3-fleuro-3-methylbutyryloxy)but-2-ynyl]6α, 9α-difluoro-17α-(furan-2-yl) carbonyloxy-11β-hydroxy-16α-methyl-3-oxoandrosta-1,4-diene-17β-carbothioate” (Sun Pharma Advanced Research Company Limited, priority 2013, dated 2016).

What was measured:
[1] = tested on: liver glycogen deposition; assay: Liver glycogen deposition; format: in vivo, Male Sprague Dawley rats; settings: 3 mg/kg intratracheal, 2 doses 24 hrs apart, adrenalectomized rats
[2] = tested on: liver glycogen deposition; assay: Liver glycogen deposition; format: in vivo, Male Sprague Dawley rats; settings: 3 mg/kg intratracheal, 2 doses 24 hrs apart, adrenalectomized rats; remark: listed apart in the source
Procedure: Male Sprague Dawley rats, weighing 190-220 g were bilaterally adrenalectomized and maintained on 0.9% saline solution throughout the experiment. On day 5th and 6th of adrenalectomy, animals were made into different groups, test compounds prepared in cold saline (sonicated for 30 min) were instilled intratracheally 2 doses @3 mg/kg, 24 hrs apart. At 15 hrs after the last treatment, animals were sacrificed and livers were excised and weighed. The glycogen content of the livers was determined by anthrone method. Briefly, a weighed quantity of liver tissue was homogenized with 5% trichloroacetic acid, supernatant mixed with ethanol and kept overnight for precipitation. The glycogen thus extracted was estimated as glucose generated after acid hydrolysis by addition of anthrone reagent at 620 nm. Glycogen content was expressed as mg/100 g liver.

[3] = Sephadex-induced lung edema; format: in vivo, SD rats; settings: Sprague-Dawley, rat, thymus, other: intratracheal; i.t., 24 hrs and 2 hrs prior to Sephadex; read-out: ED50 Thymus involution
Procedure: (§1) Sephadex® G-200 was prepared in sterile saline (10 mg/ml) and allowed to swell for at least 3 days at room temperature. Test compounds were administered intratracheally at 24 hrs and 2 hrs prior to intratracheal administration of Sephadex® (5 mg/kg) under light ether anesthesia. Vehicle control animals were administered vehicle instead of Sephadex®. At 24 hr after Sephadex® instillation, lung and thymus were excised from individual animals and weighed. Wet weights of lungs and thymus were corrected for 100 g of initial body weight. The percentage increase in lung weight caused by Sephadex® and its inhibitions by the compounds, were calculated. The percentage inhibitions of thymus compared to vehicle control group were also calculated

cotton pellet granuloma = assay: Cotton pellet granuloma test; format: in vivo, SD rats; settings: 100 mcg/pellet
Procedure: SD rats were used for assessing anti-inflammatory activity of test compound using cotton pellet granuloma method. Sterilized cotton pellets weighing 20 mg were prepared. Test compounds were dissolved in acetone so as to get the required quantity for each cotton pellet in 500 μl. Different pellets were impregnated with 500 μl of acetone to contain required quantity of test compounds and allowed to dry. Vehicle control pellets were impregnated with 500 μl acetone.
Rats were made into different groups. Two cotton pellets were surgically implanted into the scapular region of each rat. On sixth day of such implantation, pellets along with granuloma were taken out. Thymus gland was also separated from each animal and weighed. The pellets with granuloma were dried for 20 hrs at 60° C. and weighed. Mean weights of dry granuloma and thymus, body weight gain/100 g body weights were calculated.

[4] = tested on: Sephadex-induced lung edema; assay: Sephadex-induced lung edema; format: in vivo, SD rats; settings: Rattus norvegicus; i.t., 24 hrs and 2 hrs prior to Sephadex; read-out: ED50 Lung edema inhibition
Procedure: as §1

croton oil ear edema = assay: Croton oil ear edema; format: in vivo, Mice (male, CD-1); settings: for Inhibition of ear edema (%): 1.6 μg, applied to ear 2 hrs before croton oil
Procedure: Mice (male, CD-1) were made into different groups. A method similar to one reported in the literature was used. Test compounds were dissolved in pyridine-water-acetone (4:2:14) solution 10 μl of this solution of compound or vehicle solution was applied to the left ear of the mice. The right ear of each mouse was applied simultaneously with 10 μl of pyridine: water: acetone (4:2:14) solution. After 2 hrs of compound or vehicle application, 10 μl of croton oil solution was applied to the left ear of all animals. After 6 hr of croton oil treatment the animals were sacrificed; ears were excised and weighed separately.

[5] = tested on: ovalbumin-induced increase in intranasal pressure; assay: Ovalbumin-induced increase in intranasal pressure; format: in vivo, guinea pigs; settings: intranasal instillation 24 hr and 2 hr prior to ovalbumin challenge; FIG. 2
Procedure: Animals sensitized with ovalbumin as described above were used for experiments determining intranasal pressure. Intranasal instillation of compound of formula I, fluticasone propionate or placebo was done 24 hr and 2 hr prior to challenge with ovalbumin. The nasopharynx was catheterized with a PE cannula, one end of which was attached to pressure transducer and other to the nebulizer. Ovalbumin (5%) was nebulized into the nasal cavity for 10 min. The changes in intranasal pressure were recorded for following 45 min and differential pressure (dP) was calculated.

[6] = tested on: skin atrophy and systemic side effects; assay: Skin atrophy and systemic side effects on topical application; format: in vivo, Male SD rats; settings: dermal, daily 14 days
From the text: Male SD rats were lightly anesthetized with isoflurane. Bilaterally paired sites were marked on the back, one on each side of the flank. One of the sites was applied with an appropriate dose of compound of the present invention and fluticasone propionate dissolved in the acetone, daily for a period of 14 days. Contralateral site served as solvent treated controls and received acetone. Body weights were monitored on 0-14 days. On day 15, twenty-four hours after the last applications, blood was collected from the tail vein to determine total and differential blood cell count. The animals were euthanized and full-thickness skin from shaved area was punched to get 15 mm diameter plugs. The subcutaneous fat and muscle was removed and the punched plug was weighed. Thymus weights of each animal were also determined as a marker of systemic corticosteroid activity

[7] = molecular target: T1, Human Glucocorticoid receptor (Homo sapiens, UniProt P04150); assay: Human glucocorticoid receptor binding (in vitro), [3H]dexamethasone radioligand; settings: at 0.1 μM
T1 construct: expressed in transfected cells; host or cells: human HeLa cells
T1 sequence (P04150 1-777): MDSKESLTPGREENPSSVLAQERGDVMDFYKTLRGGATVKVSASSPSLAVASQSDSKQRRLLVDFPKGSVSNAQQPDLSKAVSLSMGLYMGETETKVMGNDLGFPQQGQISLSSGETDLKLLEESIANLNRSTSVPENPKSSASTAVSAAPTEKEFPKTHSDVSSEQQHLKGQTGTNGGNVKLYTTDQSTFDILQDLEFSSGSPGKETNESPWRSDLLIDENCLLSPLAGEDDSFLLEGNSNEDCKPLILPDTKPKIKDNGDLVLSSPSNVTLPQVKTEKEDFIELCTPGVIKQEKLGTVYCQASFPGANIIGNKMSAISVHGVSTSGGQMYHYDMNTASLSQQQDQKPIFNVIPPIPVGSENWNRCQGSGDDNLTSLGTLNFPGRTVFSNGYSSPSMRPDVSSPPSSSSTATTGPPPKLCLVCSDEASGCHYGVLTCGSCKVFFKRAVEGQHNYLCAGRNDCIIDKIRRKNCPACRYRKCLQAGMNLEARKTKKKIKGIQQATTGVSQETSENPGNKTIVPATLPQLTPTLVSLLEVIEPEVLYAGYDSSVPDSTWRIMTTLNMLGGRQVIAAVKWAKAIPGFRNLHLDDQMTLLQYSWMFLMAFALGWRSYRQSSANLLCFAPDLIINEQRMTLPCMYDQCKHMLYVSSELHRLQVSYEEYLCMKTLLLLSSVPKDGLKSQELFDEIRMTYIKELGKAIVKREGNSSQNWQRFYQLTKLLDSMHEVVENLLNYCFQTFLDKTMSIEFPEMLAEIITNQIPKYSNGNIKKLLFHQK
Procedure: The activity of test compounds on glucocorticoid receptor was assessed using radioligand binding assays.
The % inhibition was evaluated using a single concentration of test compound and the corresponding radiolabeled ligand. Results are presented as the percent inhibition of specific binding. The values are average of duplicate determinations for each concentration.

With `CCCC1O[C@@H]2C[C@H]3[C@@H]4CCC5=CC(=O)C=C[C@]5(C)[C@H]4[C@@H](O)C[C@]3(C)[C@]2(C(=O)CO)O1` (stereo partly shown) [Budesonide] the “% Inhibition of thymus” value [1] was 65.02%, the Glycogen content [2] was 552.77 mg/100 g liver and the ED50 at 24 h [3] was 0.68 mg/kg.

For `CC(C)C(=O)OCC(=O)[C@@]12O[C@H](C3CCCCC3)O[C@@H]1C[C@H]1[C@@H]3CCC4=CC(=O)C=C[C@]4(C)[C@H]3[C@@H](O)C[C@@]12C` [Ciclesonide], the “% Inhibition of thymus” value [1] was 61.34%, the “Mean % Inhibition of Granuloma A” value (cotton pellet granuloma) was 63.38% and the “Thymus wt. (% Decrease) B” value (cotton pellet granuloma) was 15.16%. The Glycogen content [2] was 263.96 mg/100 g liver, the ED50 at 24 h [3] was 3.13 mg/kg and the ED50 [4] was 0.388 mg/kg.

With `C[C@@H]1C[C@H]2[C@@H]3CCC4=CC(=O)C=C[C@]4(C)[C@@]3(F)[C@@H](O)C[C@]2(C)[C@@]1(O)C(=O)CO` [Dexamethasone] the “Inhibition of ear edema (%)” value (croton oil ear edema) was 50.05%.

In the case of `CCC(=O)O[C@]1(C(=O)SCF)[C@H](C)C[C@H]2[C@@H]3C[C@H](F)C4=CC(=O)C=C[C@]4(C)[C@@]3(F)[C@@H](O)C[C@@]21C` [Fluticasone propionate], the “Inhibition of ear edema (%)” value (croton oil ear edema) is reported as 81.09%, the “% Inhibition of thymus” value [1] is reported as 70.17% and the “Mean % Inhibition of Granuloma A” value (cotton pellet granuloma) is reported as 66.04%. The “Thymus wt. (% Decrease) B” value (cotton pellet granuloma) was 73.56%, the “inhibition of intranasal pressure” value [5] was “equivalent inhibition” and the Glycogen content [2] was 1514.65 mg/100 g liver. For the same compound, the “% Body Weight Gain” value ([6]; 6 μg/site) was 68.1%, the “% Inhibition Lymphocytes” value ([6]; 6 μg/site) was 31.7% and the “% Inhibition Neutrophils” value ([6]; 6 μg/site) was 25.8%. For the same compound, the “% Inhibition Skin weight” value ([6]; 6 μg/site) was 25.3%, the “% Inhibition Thymus” value ([6]; 6 μg/site) was 2.0% and the “% Inhibition Total leukocyt” value ([6]; 6 μg/site) was 31.4%. For the same compound, the “% Body Weight Gain” value ([6]; 18 μg/site) was 67.4%, the “% Inhibition Lymphocytes” value ([6]; 18 μg/site) was 15.9% and the “% Inhibition Neutrophils” value ([6]; 18 μg/site) was 24.5%. For the same compound, the “% Inhibition Skin weight” value ([6]; 18 μg/site) was 20.8%, the “% Inhibition Thymus” value ([6]; 18 μg/site) was 5.4% and the “% Inhibition Total leukocyt” value ([6]; 18 μg/site) was 17.5%. The “% Body Weight Gain” value ([6]; 60 μg/site) was 61.9%, the “% Inhibition Lymphocytes” value ([6]; 60 μg/site) was 15.6% and the “% Inhibition Neutrophils” value ([6]; 60 μg/site) was 14.5%. For the same compound, the “% Inhibition Skin weight” value ([6]; 60 μg/site) was 27.9%, the “% Inhibition Thymus” value ([6]; 60 μg/site) was 23.0% and the “% Inhibition Total leukocyt” value ([6]; 60 μg/site) was 15.2%. The “% Body Weight Gain” value ([6]; 180 μg/site) was 42.5%, the “% Inhibition Lymphocytes” value ([6]; 180 μg/site) was 34.1% and the “% Inhibition Neutrophils” value ([6]; 180 μg/site) was 24.6%. The “% Inhibition Skin weight” value ([6]; 180 μg/site) was 30.0%, the “% Inhibition Thymus” value ([6]; 180 μg/site) was 55.0% and the “% Inhibition Total leukocyt” value ([6]; 180 μg/site) was 32.7%. For the same compound, the ED50 at 24 h [3] was 0.36 mg/kg and the ED50 [4] was 0.086 mg/kg.

In the case of `C[C@@H]1C[C@H]2[C@@H]3CCC4=CC(=O)C=C[C@]4(C)[C@@]3(Cl)[C@@H](O)C[C@]2(C)[C@@]1(OC(=O)c1ccco1)C(=O)CCl` [Mometasone furoate], the “% Inhibition of thymus” value [1] is reported as 43.51% and the Glycogen content [2] is reported as 1117.32 mg/100 g liver.

In the case of `C[C@@H]1CC2C3C[C@H](F)C4=CC(=O)C=C[C@]4(C)[C@@]3(F)[C@@H](O)C[C@]2(C)[C@@]1(OC(=O)c1ccco1)C(=O)SCC#CCO` (stereo partly drawn) [formula II, S-(4-Hydroxy-but-2-ynyl)6α,9α-difluoro-17α-(furan-2-yl)carbonyloxy-11β-hydroxy-16α-methyl-3-oxoandrosta-1,4-diene-17β-carbothioate], the “potency in topical in vivo anti-inflammatory models such as croton oil ear edema” value (croton oil ear edema; compared with compound of the present invention) is reported as “significantly less potent”.

In the case of `C[C@@H]1CC2C3C[C@H](F)C4=CC(=O)C=C[C@]4(C)[C@@]3(F)[C@@H](O)C[C@]2(C)[C@@]1(OC(=O)c1ccco1)C(=O)O` (stereo partly shown) [formula III], the inhibition at 0.1 µM [7] is reported as 2%.
